Experiments:
Human normal plasma = assay: In vitro clotting time measurement: prothrombin time (PT); assay type: biochemical; conditions: PT 2-fold extending concentration (CT2), rabbit brain-derived tissue thromboplastin
Description: (2) In vitro Clotting Time Measurement
(2-1) Prothrombin Time (PT) Measurement:
A PT-test WAKO (WAKO PURE CHEMICAL) was employed together with an automatic coagulometer (STA compact DIAGNOSTICA STAGO). 97 μl of Human normal plasma (fresh human plasma, FFP, SEKISUI KAGAKU KOGYO) was combined with 3 μl of a test substance and pre-incubated at 37° C. for 4 minutes. 50 μl of the plasma described above was combined with 100 μl of rabbit brain-derived tissue thromboplastin solution and the time for the clotting was measured. The test substance was used after dissolving in dimethyl sulfoxide (DMSO). A concentration required for 2-fold prolongation of the clotting time was calculated based on the clotting time observed when DMSO was added instead of the test substance.

human FXa = human FXa (Homo sapiens, UniProt P00742); assay: Human activated coagulation factor X (FXa) inhibiting activity; assay type: biochemical; conditions: substrate S-2765, 37° C., absorbance at 405 nm
Sequence of human FXa (P00742 235-488 limits assumed): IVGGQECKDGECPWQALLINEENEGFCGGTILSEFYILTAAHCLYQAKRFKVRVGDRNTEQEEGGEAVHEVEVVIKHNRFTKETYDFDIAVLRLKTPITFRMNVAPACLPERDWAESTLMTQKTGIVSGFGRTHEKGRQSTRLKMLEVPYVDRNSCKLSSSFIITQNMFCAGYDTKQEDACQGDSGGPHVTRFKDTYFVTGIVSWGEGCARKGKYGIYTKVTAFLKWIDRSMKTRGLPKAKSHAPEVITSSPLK
Sequence of human FXa (P00742 41-179 partner limits assumed): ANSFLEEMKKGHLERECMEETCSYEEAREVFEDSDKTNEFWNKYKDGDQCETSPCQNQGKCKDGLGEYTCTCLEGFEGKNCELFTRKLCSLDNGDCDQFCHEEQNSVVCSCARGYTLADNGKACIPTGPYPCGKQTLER
Description: (1) Human Activated Coagulation Factor X (FXa) Inhibiting Activity
Method: A cuvette was charged with 225 μl of 0.05 M tris buffer (pH 8.3) containing 0.145 M sodium chloride and 2 mM calcium chloride, 5 μl of a sample (test compound dissolved in dimethyl sulfoxide) and 10 μl of human FXa (0.3 unit/ml), which were reacted at 37° C. for 10 minutes and then combined with 10 μl of a substrate (3 mM, S-2765) and further reacted at 37° C. for 10 minutes. Then the reaction was terminated by adding 25 μl of 50% aqueous acetic acid, and the change in the absorbance at 405 nm was determined using a spectrophotometer to calculate the concentration at which the FXa effect was inhibited by 50% (IC50).

With CCOC(=O)NC1(CN2CCN(S(=O)(=O)c3ccc4cc(Cl)ccc4c3)CC2=O)CCN(c2ccncc2)CC1 [Example 1, 4-(6-Chloronaphthalene-2-sulfonyl)-1-[4-ethoxycarbonylamino-1-(4-pyridyl)-4-piperidylmethyl]-2-piperazinone] the “PT CT2” value (Human normal plasma) was 0.27 µM and the IC50 (human FXa) was 4.6 nM.

From patent US7109200B2, “Carbamate derivatives, process for producing the same and use thereof” (Takeda Pharmaceutical Company Limited, priority 2000, dated 2006)
